Laboratory results from US10227331B2 (priority 2015, dated 2019).

Assays:
[1] = molecular target: VIM-1 (Pseudomonas aeruginosa (strain ATCC 15692 / DSM 22644 / CIP 104116 / JCM 14847 / LMG 12228 / 1C / PRS 101 / PAO1), UniProt A0A0F7KYQ8); assay: biochemical; details: CCF2-FA substrate, 2 hours at 25° C
Procedure, shortened: (§1)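 Semi-log dose-response curves, fitted with a 4-parameter model, gave IC50s. The underlying signal was CCF2-FA fluorescence following 2 hours at 25° C with enzyme, substrate and inhibitor combined.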

[2] = system: Serratia marcescens expressing IMP-1 (CL5741); assay type: cell-based; details: with imipenem 1 μg/ml, 95% inhibition of bacterial growth; for Serratia marcescens MITC95: IMP-1 (CL5741)
Procedure, shortened: (§2)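 Restoration of imipenem susceptibility (1 μg/ml imipenem) was judged by absorbance after 22–24 h at 35° C. Test compound was added to bacteria suspended 1:100 in 1.1× CAMHB from overnight blood-agar cultures.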

[3] = system: Klebsiella pneumoniae expressing VIM-1 (IHMA599644); assay type: cell-based; details: with imipenem 1 μg/ml, 95% inhibition of bacterial growth; for Klebsiella pneumoniae MITC95: VIM-1 (IHMA599644)
Procedure, shortened: as §2

[4] = system: Escherichia coli expressing NDM-1 (CLB30005, CLB30016); assay type: cell-based; details: with imipenem 1 μg/ml, 95% inhibition of bacterial growth; for Escherichia coli MITC95: NDM-1 (CLB30016)
Procedure, shortened: as §2

[5] = system: P. aeruginosa expressing IMP-1, efflux− (MB9799); assay: Efflux: concentration of MBL inhibitor which restores susceptibility to imipenem; assay type: cell-based, Pseudomonas aeruginosa; details: imipenem at 2 μg/mL, in the presence of a class A, C, D serine β-lactamase inhibitor closely related to relebactam
From the text: (§3) The strain background is Pseudomonas aeruginosa PAO1.

[6] = system: P. aeruginosa expressing IMP-1, efflux+ (MB9798); assay type: cell-based, Pseudomonas aeruginosa; details: for P. aeruginosa expressing IMP-1, efflux+ (MB9798) MITC95: imipenem at 2 μg/mL, in the presence of a class A, C, D serine β-lactamase inhibitor closely related to relebactam; for Efflux ratio: ratio MITC95 PA_9798/MITC95 PA_9799
From the text: as §3

[7] = molecular target: IMP-1 (Serratia marcescens, UniProt P52699); assay: biochemical; assay type: biochemical; details: CCF2-FA substrate, 2 hours at 25° C; read-out: IMP-1 IC50
Chain of IMP-1 (P52699 whole entry, looked up, species assumed): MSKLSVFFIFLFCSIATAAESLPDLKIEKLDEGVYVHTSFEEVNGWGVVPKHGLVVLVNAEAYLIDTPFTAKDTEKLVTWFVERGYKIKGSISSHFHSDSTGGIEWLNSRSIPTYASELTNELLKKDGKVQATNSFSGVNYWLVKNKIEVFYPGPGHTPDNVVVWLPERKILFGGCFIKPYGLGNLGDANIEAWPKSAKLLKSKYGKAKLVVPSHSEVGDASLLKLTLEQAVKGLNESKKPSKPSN
Procedure, shortened: as §1

[8] = molecular target: NDM-1 (Klebsiella pneumoniae, UniProt C7C422); assay: biochemical; assay type: biochemical; details: CCF2-FA substrate, 2 hours at 25° C; read-out: NDM-1 IC50
Chain of NDM-1 (C7C422 whole entry, looked up, species assumed): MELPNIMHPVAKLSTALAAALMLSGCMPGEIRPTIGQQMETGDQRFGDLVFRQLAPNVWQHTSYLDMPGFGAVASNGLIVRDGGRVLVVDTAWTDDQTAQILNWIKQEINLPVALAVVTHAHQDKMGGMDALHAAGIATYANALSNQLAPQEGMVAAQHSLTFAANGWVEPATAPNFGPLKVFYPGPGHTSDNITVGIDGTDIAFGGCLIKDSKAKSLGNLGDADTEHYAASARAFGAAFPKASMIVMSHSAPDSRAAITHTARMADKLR
Procedure, shortened: as §1

SMILES	IC50 [1]	Serratia marcescens expressing IMP-1 (CL5741) MITC95 [2]	Klebsiella pneumoniae expressing VIM-1 (IHMA599644) MITC95 [3]	Escherichia coli expressing NDM-1 (CLB30016) MITC95 [4]	P. aeruginosa expressing IMP-1, efflux− (MB9799) MITC95 [5]	P. aeruginosa expressing IMP-1, efflux+ (MB9798) MITC95 [6]	Efflux ratio [6]	IC50 [7]	IC50 [8]	Serratia marcescens MITC95 [2]	Klebsiella pneumoniae MITC95 [3]	Escherichia coli MITC95 [4]
Cn1c(N)nc2c(-c3ccc(S(C)(=O)=O)c(S(N)(=O)=O)c3-c3nn[nH]n3)cccc21 [Example 192, 3-(2-amino-1-methyl-1H-benzo[d]imidazol-4-yl)-6-(methylsulfonyl)-2-(2H-tetrazol-5-yl)benzenesulfonamide]	0.194 nM	1.563 µM	3.125 µM	0.7813 µM	0.7813 µM	3.125 µM	4.00	0.552 nM	1 nM			
Nc1nc2ccc(-c3ccc(S(=O)(=O)C4CNC4)c(S(N)(=O)=O)c3-c3nn[nH]n3)cc2o1 [Example 29, 3-(2-aminobenzo[d]oxazol-6-yl)-6-(azetidin-3-ylsulfonyl)-2-(2H-tetrazol-5-yl)benzenesulfonamide]	0.328 nM	1.563 µM	3.125 µM	1.563 µM	1.563 µM	3.125 µM	2.00	0.313 nM	0.24 nM			
Cc1ccc(-c2ccc(S(=O)(=O)[C@@H]3CCNC3)c(S(N)(=O)=O)c2-c2nn[nH]n2)c2nc(N)sc12 [Example 187, 3-(2-amino-7-methylbenzo[d]thiazol-4-yl)-6-((R)-pyrrolidin-3-ylsulfonyl)-2-(2H-tetrazol-5-yl)benzenesulfonamide]	0.159 nM	0.7813 µM	1.563 µM	0.7813 µM	0.7813 µM	1.563 µM	2.00	0.0757 nM	0.0691 nM			
NS(=O)(=O)c1c(S(=O)(=O)C2CNC2)ccc(C2=CCS(=O)(=O)CC2)c1-c1nn[nH]n1 [Example 218, 6-(azetidin-3-ylsulfonyl)-3-(1,1-dioxido-3,6-dihydro-2H-thiopyran-4-yl)-2-(2H-tetrazol-5-yl) benzenesulfonamide]	2.23 nM	1.563 µM	3.125 µM	0.3906 µM	1.563 µM	12.5 µM	8.00	3.55 nM	1.75 nM			
COC(=O)c1cccc(-c2ccc(S(=O)(=O)CCN)c(S(N)(=O)=O)c2-c2nn[nH]n2)c1NCCN [Example 341, Methyl 2-((2-aminoethyl)amino)-4′-((2-aminoethyl)sulfonyl)-3′-sulfamoyl-2′-(2H-tetrazol-5-yl)-[1,1′-biphenyl]-3-carboxylate]	4.46 nM				1.563 µM	25 µM	15.99	16.1 nM	4.01 nM	3.125 µM	3.125 µM	1.563 µM
CS(=O)(=O)c1ccc([C@H]2CC[C@@H](N)CC2)c(-c2nnn[nH]2)c1S(N)(=O)=O [Example 209, 3-((1s,4s)-4-aminocyclohexyl)-6-(methylsulfonyl)-2-(1H-tetrazol-5-yl) benzenesulfonamide]	52.1 nM	6.25 µM	25 µM	3.125 µM	3.125 µM	50 µM	16.00	65.3 nM	16.4 nM			
NS(=O)(=O)c1c(S(=O)(=O)[C@H]2CCNC2)ccc(-c2cccc3nc(C(=O)O)[nH]c23)c1-c1nn[nH]n1 [Example 290, 7-(4-((S)-pyrrolidin-3-ylsulfonyl)-3-sulfamoyl-2-(2H-tetrazol-5-yl)phenyl)-1H-benzo[d]imidazole-2-carboxylic Acid]	0.5 nM				1.563 µM	6.25 µM	4.00	2.96 nM	0.472 nM	3.125 µM	3.125 µM	3.125 µM
NS(=O)(=O)c1c(S(=O)(=O)C2CNC2)ccc(-c2cccn3ccnc23)c1-c1nnn[nH]1 [Example 58, 6-(Azetidin-3-ylsulfonyl)-3-(imidazo[1,2-a]pyridin-8-yl)-2-(1H-tetrazol-5-yl)benzenesulfonamide]	0.342 nM	1.563 µM	3.125 µM	0.7813 µM	1.563 µM	1.563 µM	1.00	0.597 nM	0.378 nM			
NS(=O)(=O)c1c(S(=O)(=O)C2CNC2)ccc(-c2csc(N3CCOCC3)n2)c1-c1nnn[nH]1.O=C(O)C(F)(F)F [Example 124, 3-((4-(2-morpholinothiazol-4-yl)-2-sulfamoyl-3-(1H-tetrazol-5-yl)phenyl)sulfonyl)azetidin-1-ium 2,2,2-trifluoroacetate]	4.95 nM	6.25 µM	12.5 µM	3.125 µM	1.563 µM	200 µM	127.96	6.1 nM	1.5 nM			
Nc1nc2cccc(-c3ccc(S(=O)(=O)[C@H]4C[C@H](N)C4)c(S(N)(=O)=O)c3-c3nn[nH]n3)c2[nH]1 [Example 175, 3-(2-amino-3H-benzo[d]imidazol-4-yl)-6-((1r,3r)-3-aminocyclobutylsulfonyl)-2-(2H-tetrazol-5-yl)benzenesulfonamide]	0.478 nM	1.563 µM	1.563 µM	0.7813 µM	0.7813 µM	0.7813 µM	1.00	2.2 nM	0.149 nM			
C[C@H](N)CS(=O)(=O)c1ccc(-c2cccc3c2nc(N)n3C)c(-c2nn[nH]n2)c1S(N)(=O)=O [Example 276, 3-(2-amino-1-methyl-1H-benzo[d]imidazol-4-yl)-6-((S)-2-aminopropylsulfonyl)-2-(2H-tetrazol-5-yl)benzenesulfonamide]	0.214 nM				0.7813 µM	1.563 µM	2.00	0.285 nM	0.24 nM	0.7813 µM	3.125 µM	0.7813 µM
Nc1nc2c(-c3ccc(S(=O)(=O)[C@H]4C[C@H](N)C4)c(S(N)(=O)=O)c3-c3nn[nH]n3)cccc2s1 [Example 179]	0.322 nM	1.563 µM	1.563 µM	0.7813 µM	1.563 µM	0.7813 µM	0.50	0.135 nM	0.106 nM			
CC(=O)N1CCC(S(=O)(=O)c2ccc(-c3cccc4nc(N)[nH]c34)c(-c3nn[nH]n3)c2S(N)(=O)=O)CC1 [Example 44, 6-(1-acetylpiperidin-4-ylsulfonyl)-3-(2-amino-3H-benzo[d]imidazol-4-yl)-2-(2H-tetrazol-5-yl)benzenesulfonamide]	0.299 nM	6.25 µM	25 µM	6.25 µM	3.125 µM	100 µM	32.00	1.98 nM	0.447 nM			
